The results in this text go back to patent US5198445A, “Composition and use of substituted 3-thio-2-propynenitriles as industrial antimicrobials” (The Dow Chemical Company, priority 1992, dated 1993).

Assay [1] has as its system Escherichia coli (Ec). As to the kind of experiment: MIC in nutrient agar, Escherichia coli. The format is cell-based, Escherichia coli ATCC 11229. How it is done: (§1) The minimum inhibitory concentration (MIC) for the compounds listed in Table I is determined for 9 bacteria, using nutrient agar, and 7 yeast and fungi, using malt yeast agar. A one percent solution of the test compound is prepared in a mixture of acetone and water. Nutrient agar is prepared at pH 6.8, representing a neutral medium, and at pH 8.2, representing an alkaline medium. The nutrient agars are prepared by adding 23 g of nutrient agar to one-liter of deionized water. In addition, the alkaline medium is prepared by adjusting a 0.04M solution of N-[tris-(hydroxymethyl)methyl]-glycine buffered deionized water with concentrated sodium hydroxide to a pH of […]. Malt yeast agar is prepared by adding 3 g yeast extract and 45 g malt agar per liter of deionized water. The specific agar is dispensed in 30 ml aliquots into 25×200 mm test tubes, capped and autoclaved for 15 minutes at 115° C. The test tubes containing the agar are cooled in a water bath until the temperature of the agar is 48° C. Then, an appropriate amount of the one percent solution of the test compound is added (except in the controls where no compound is added) to the respective test tubes so that the final concentrations are 500, 250, 100, 50, 25, 10, 5, 2.5, 1.0 and zero parts per million of the test compound in the agar, thus having a known concentration of test compound dispersed therein. The contents of the test tubes are then transferred to respective petri plates. After drying for 24 hours, the petri plates containing nutrient agar are inoculated with bacteria and those containing malt yeast agar are inoculated with yeast and fungi.
(§2) The inoculation with bacteria is accomplished by using the following procedure. Twenty-four hour-cultures of each of the bacteria are prepared by incubating the respective bacteria in tubes containing nutrient broth for 24 hours at 30° C. in a shaker. Dilutions of each of the 24 hour-cultures are made so that nine separate suspensions (one for each of the nine test bacteria) are made, each containing 10^8 colony forming units (CFU) per ml of suspension of a particular bacteria. Aliquots of 0.3 ml of each of the bacterial suspensions are used to fill the individual wells of Steer's Replicator. For each microbial suspension, 0.3 ml was used to fill three wells (i.e., three wells of 0.3 ml each) so that for the nine different bacteria, 27 wells are filled. The Steer's Replicator is then used to inoculate both the neutral and alkaline pH nutrient agar petri plates.
(§3) The inoculated petri plates are incubated at 30° C. for 48 hours and then read to determine if the test compound which is incorporated into the agar prevented growth of the respective bacteria.
(§4) Table II lists the bacteria, yeast and fungi used in the MIC test described above along with their respective American Type Culture Collection (ATCC) identification numbers.
(§5) The following MIC and MEC antimicrobial tests, whose results are shown in Tables XIII-XVII, are performed using the same methods as described hereinabove.

Assay [2] relates to Fusarium oxysporum (Fo). As to the kind of experiment: MIC in malt yeast agar, Fusarium oxysporum. The assay is classed as cell-based, Fusarium oxysporum ATCC 48112. Particulars: read-out: Minimum Inhibitory Concentration, Fo. How it is done:
as §1
(§6) The inoculation with the yeast and fungi is accomplished as follows. Cultures of yeast and fungi are incubated for seven days on malt yeast agar at 30° C. These cultures are used to prepare suspensions by the following procedure. A suspension of each organism is prepared by adding 10 ml of sterile saline and 10 microliters of octylphenoxy polyethoxy ethanol (TRITON® X-100, a trademark of Rohm & Haas Company) to the agar slant of yeast or fungi. The sterile saline/octylphenoxy polyethoxy ethanol solution is then agitated with a sterile swab to suspend the microorganism grown on the slant. Each resulting suspension is diluted into sterile saline (1 part suspension: 9 parts sterile saline). Aliquots of these dilutions are placed in individual wells of Steer's Replicator and petri plates inoculated as previously described. The petri plates are incubated at 30° C. and read after 48 hours for yeast and 72 hours for fungi.
as §4, §5

Assay [3] deals with Candida albicans (Ca). As to the kind of experiment: MIC in malt yeast agar, Candida albicans. The format is cell-based, Candida albicans ATCC 10231. Particulars: read-out: Minimum Inhibitory Concentration, Ca. As for the experimental part:
as §1, §6, §4, §5

Assay [4] concerns Staphylococcus aureus (Sa). Nature of the assay: MIC in nutrient agar, Staphylococcus aureus. The format is cell-based, Staphylococcus aureus ATCC 6538. As for the experimental part:
as §1, §2, §3, §4, §5

For assay [5], the system named is Enterobacter aerogenes (Ea). Nature of the assay: MIC in nutrient agar, Enterobacter aerogenes. The format is cell-based, Enterobacter aerogenes ATCC 13048. As for the experimental part: as §1, §2, §3, §4, §5
Assay [6] deals with Salmonella choleraesuis (Sc). Nature of the assay: MIC in nutrient agar, Salmonella choleraesuis. The assay is classed as cell-based, Salmonella choleraesuis ATCC 10708. How it is done: as §1, §2, §3, §4, §5
Assay [7] has as its system Penicillium chrysogenum (Pc). As to the kind of experiment: MIC in malt yeast agar, Penicillium chrysogenum. The assay is classed as cell-based, Penicillium chrysogenum ATCC 9480. The conditions noted are these: read-out: Minimum Inhibitory Concentration, Pc. As for the experimental part:
as §1, §6, §4, §5

The subject of assay [8] is Saccharomyces cerevisiae (Sc). As to the kind of experiment: MIC in malt yeast agar, Saccharomyces cerevisiae. The format is cell-based, Saccharomyces cerevisiae ATCC 4105. Particulars: read-out: Minimum Inhibitory Concentration, Sc. As for the experimental part: as §1, §6, §4, §5
[9] abbreviates: Escherichia coli, pH 6.8; read-out: Minimum Inhibitory Concentration, Ec.
Where [10] appears, read: Escherichia coli, pH 8.2, read-out: Minimum Inhibitory Concentration, Ec.
Where [11] appears, read: Staphylococcus aureus, pH 6.8; read-out: Minimum Inhibitory Concentration, Sa.
Setting [12] is: Staphylococcus aureus, pH 8.2, read-out: Minimum Inhibitory Concentration, Sa.
The mark [13] stands for this setting: Klebsiella aerogenes, pH 6.8, read-out: Minimum Inhibitory Concentration, Ea.
[14] abbreviates: Klebsiella aerogenes, pH 8.2; read-out: Minimum Inhibitory Concentration, Ea.
The mark [15] stands for this setting: Salmonella enterica, CHOLERAESUIS, pH 6.8; read-out: Minimum Inhibitory Concentration, Sc.
The mark [16] stands for this setting: Salmonella enterica, CHOLERAESUIS, pH 8.2; read-out: Minimum Inhibitory Concentration, Sc.
The mark [17] stands for this setting: Escherichia coli, pH 8.2; read-out: Minimum Inhibitory Concentration, Ec.
Where [18] appears, read: Staphylococcus aureus, pH 6.8, read-out: Minimum Inhibitory Concentration, Sa.
The mark [19] stands for this setting: Staphylococcus aureus, pH 8.2; read-out: Minimum Inhibitory Concentration, Sa.
The mark [20] stands for this setting: Klebsiella aerogenes, pH 6.8; read-out: Minimum Inhibitory Concentration, Ea.

In brackets after ≈: the same amount, converted by molar mass. Read-outs that look alike come from different tables or passages of the source.

`CCSC#CC#N` [B, 3-ethylthio-2-propynenitrile]: the MIC in assay [1] (setting [9]) is 5 µg/mL (≈ 45 µM); in assay [1] (setting [10]) it was 10 µg/mL (≈ 90 µM); in assay [2] (malt yeast agar), less than 1 µg/mL; in assay [3] (malt yeast agar), less than 1 µg/mL; in assay [4] (setting [11]), 5 µg/mL (≈ 45 µM); in assay [4] (setting [12]), 10 µg/mL (≈ 90 µM). For the same molecule, the MIC in assay [5] (setting [13]) was 25 µg/mL (≈ 225 µM); in assay [5] (setting [14]), 25 µg/mL (≈ 225 µM); in assay [6] (setting [15]), 5 µg/mL (≈ 45 µM); in assay [6] (setting [16]), 10 µg/mL (≈ 90 µM); in assay [7] (malt yeast agar), less than 1 µg/mL; in assay [8] (malt yeast agar), less than 1 µg/mL.

Turning to `N#CC#CSC1CCCC1` [C, 3-cyclopentylthio-2-propynenitrile], the MIC was less than 10 µg/mL in assay [1] (setting [9]); less than 10 µg/mL in assay [1] (setting [17]); less than 1 µg/mL in assay [2] (malt yeast agar); less than 10 µg/mL in assay [4] (setting [18]); less than 10 µg/mL in assay [4] (setting [19]); 100 µg/mL (≈ 661 µM) in assay [5] (setting [20]). Also, the MIC is 100 µg/mL (≈ 661 µM) in assay [5] (setting [14]); less than 10 µg/mL in assay [6] (setting [15]); 25 µg/mL (≈ 165 µM) in assay [6] (setting [16]); less than 1 µg/mL in assay [7] (malt yeast agar); 2.5 µg/mL (≈ 16.5 µM) in assay [8].

Turning to `CSC#CC#N` [Compound A, 3-methylthio-2-propynenitrile], the MIC in assay [1] (setting [9]) worked out at 2.5 µg/mL (≈ 25.7 µM); in assay [1] (setting [17]), 5 µg/mL (≈ 51.5 µM); in assay [2] (malt yeast agar), 0.5 µg/mL (≈ 5.15 µM); in assay [3] (malt yeast agar), 0.5 µg/mL (≈ 5.15 µM); in assay [4] (setting [11]) it was 2.5 µg/mL (≈ 25.7 µM); in assay [4] (setting [19]), 5 µg/mL (≈ 51.5 µM). Besides, the MIC in assay [5] (setting [20]) came to 2.5 µg/mL (≈ 25.7 µM); in assay [5] (setting [14]), 25 µg/mL (≈ 257 µM); in assay [6] (setting [15]), 2.5 µg/mL (≈ 25.7 µM); in assay [6] (setting [16]), 5 µg/mL (≈ 51.5 µM); in assay [7] (malt yeast agar), 0.25 µg/mL (≈ 2.57 µM); in assay [8] (malt yeast agar), 0.5 µg/mL (≈ 5.15 µM). Further, in assay [1] (pH 8.2), the “Minimum Inhibitory Concentration, Ec” value is on record as 5 ppm. The “Minimum Inhibitory Concentration, Sa” value in assay [4] (pH 8.2) is 5 ppm. The “Minimum Inhibitory Concentration, Sc” value in assay [6] (pH 8.2) is recorded as 5 ppm.

With `CSC=C(Cl)C#N` [Compound G, 2-chloro-3-(methylthio)-2-propenenitrile], the MIC in assay [1] (Escherichia coli, pH 6.8, read-out: Minimum Inhibitory Concentration, Ec) amounted to 50 µg/mL (≈ 374 µM); in assay [1] (setting [10]), 10 µg/mL (≈ 74.8 µM); in assay [2], 50 µg/mL (≈ 374 µM); in assay [3] it was 50 µg/mL (≈ 374 µM); in assay [4] (setting [18]), 50 µg/mL (≈ 374 µM); in assay [4] (setting [12]), 5 µg/mL (≈ 37.4 µM). Besides, the MIC was found to be 50 µg/mL (≈ 374 µM) in assay [5] (setting [13]); 10 µg/mL (≈ 74.8 µM) in assay [5] (Klebsiella aerogenes, pH 8.2, read-out: Minimum Inhibitory Concentration, Ea); 50 µg/mL (≈ 374 µM) in assay [6] (Salmonella enterica, CHOLERAESUIS, pH 6.8, read-out: Minimum Inhibitory Concentration, Sc); 5 µg/mL (≈ 37.4 µM) in assay [6] (Salmonella enterica, CHOLERAESUIS, pH 8.2, read-out: Minimum Inhibitory Concentration, Sc); 50 µg/mL (≈ 374 µM) in assay [7]; 100 µg/mL (≈ 748 µM) in assay [8].

As for `N#CC#CSc1ccc(Cl)cc1` [D, 3-(4-chlorophenylthio)-2-propynenitrile], the MIC is less than 10 µg/mL in assay [1] (setting [9]); 50 µg/mL (≈ 258 µM) in assay [1] (setting [17]); less than 1 µg/mL in assay [2] (malt yeast agar); less than 1 µg/mL in assay [3] (malt yeast agar); less than 10 µg/mL in assay [4] (setting [11]); 25 µg/mL (≈ 129 µM) in assay [4] (setting [19]). Also, the MIC in assay [5] (setting [20]) is less than 10 µg/mL; in assay [5] (setting [14]) it was 50 µg/mL (≈ 258 µM); in assay [6] (setting [15]), less than 10 µg/mL; in assay [6] (setting [16]), 50 µg/mL (≈ 258 µM); in assay [7] (malt yeast agar), less than 1 µg/mL; in assay [8] (malt yeast agar) it was less than 1 µg/mL.
